Laboratory results taken from EP4692061A1, “LOW-MOLECULAR-WEIGHT COMPOUND HAVING CEREBLON-BINDING ACTIVITY, AND USE THEREOF” (Aevis Bio, Inc., priority 2023, dated 2024).

Key:
[1] = molecular target: cereblon (CRBN) (Homo sapiens, UniProt Q96SW2); experiment: In vitro CRBN binding assay (AlphaScreen, competitive inhibition of the PROTAC assay); settings: Table 1; AlphaScreen, PROTAC Optimization Kit for BET Bromodomain-Cereblon Binding; read-out: Alpha IC50
[2] = test system: MM.1S; experiment: Tumor cell viability, CCK-8 assay, MM.1S; assay type: cell-based; settings: MM.1S (human multiple myeloma); compound treatment 1uM; 5 days
Method: (§1) To examine whether the compounds having CRBN-binding activity according to the present invention exert tumor cell apoptosis effects, the assay was conducted using various human cancer cell lines, including human multiple myeloma cell lines (MM.1S and MM.1R-LR), a human breast cancer cell line (MDA-MB-231), a human lung cancer cell line (A549), a human rhabdomyosarcoma cell line (RD), and a human lymphoma cell line (Jeko-1).
(§2) The MM.1S, MM.1R-LR, MDA-MB-231, A549, RD, and Jeko-1 cell lines were obtained from the American Type Culture Collection (ATCC, Manassas, VA, USA) and cultured in RPMI 1640 medium (Corning, MD, USA) or DMEM (Corning, MD, USA) supplemented with 10% fetal bovine serum (FBS) (Corning, MD, USA), 100 U/mL penicillin (Corning, MD, USA), and 100 µg/mL streptomycin (Corning, MD, USA) at 37°C in a 5% CO2 incubator for 24 hours. The cells were seeded at a density of 1 × 10^4 cells/well in 96-well plates and incubated for 24 hours. After incubation, the test compounds dissolved in dimethyl sulfoxide (DMSO, CAS No.: 67-68-5) were serially diluted to a final concentration of 10 µM and applied to the cells. Following an additional incubation for 2 to 5 days, the analysis was performed using a CCK-8 assay kit (Dojindo, Japan) according to the manufacturer's instructions.

[3] = test system: MM.1R-LR; experiment: Tumor cell viability, CCK-8 assay, MM.1R-LR; assay type: cell-based; settings: MM.1R-LR (drug-resistant human multiple myeloma); compound treatment 1uM; 5 days
Method: as §1, §2

[4] = test system: MDA-MB-231; experiment: Tumor cell viability, CCK-8 assay, MDA-MB-231; assay type: cell-based; settings: MDA-MB-231 (human breast cancer); compound treatment 1uM; 2 days
Method: as §1, §2

[5] = test system: A549; experiment: Tumor cell viability, CCK-8 assay, A549; assay type: cell-based; settings: A549 (human lung cancer); compound treatment 1uM; 2 days
Method: as §1, §2

[6] = test system: RD; experiment: Tumor cell viability, CCK-8 assay, RD; assay type: cell-based; settings: RD (human rhabdomyosarcoma); compound treatment 1uM; 3 days
Method: as §1, §2

[7] = test system: Jeko-1; experiment: Tumor cell viability, CCK-8 assay, Jeko-1; assay type: cell-based; settings: Jeko-1 (human lymphoma); compound treatment 1uM; 3 days
Method: as §1, §2

SMILES	IC50 [1] [nM]	Cell viability (% of control) [2]	Cell viability (% of control) [3]	Cell viability (% of control) [4]	Cell viability (% of control) [5]	Cell viability (% of control) [6]	Cell viability (% of control) [7]
CCCCCCCc1ccc(C(=O)Nc2cccc(S(=O)(=O)Nc3cccc(C4CCC(=O)NC4=O)c3)c2)cc1 (centres unmarked) [AEV40204, N-(3-(N-(3-(2,6-dioxopiperidin-3-yl)phenyl)sulfamoyl)phenyl)-4-heptylbenzamide]	440	3.3 % of control	49.4 % of control	40.4 % of control	33.6 % of control	50.8 % of control	11.6 % of control
CCCCCCCCc1ccc(C(=O)Nc2cccc(S(=O)(=O)Nc3cccc(C4CCC(=O)NC4=O)c3)c2)cc1 (centres unmarked) [AEV40264, N-(3-(N-(3-(2,6-dioxopiperidin-3-yl)phenyl)sulfamoyl)phenyl)-4-octylbenzamide]	320	13.3 % of control	79.8 % of control	46.3 % of control	61.8 % of control	67.9 % of control	5.8 % of control
O=C1CCC(c2cccc(NS(=O)(=O)c3cccc(NC(=O)c4ccc(CCl)cc4)c3)c2)C(=O)N1 (centres unmarked) [AEV41002, 4-(chloromethyl)-N-(3-(N-(3-(2,6-dioxopiperidin-3-yl)phenyl)sulfamoyl)phenyl)benzamide]	170	97.8 % of control	90.2 % of control				
O=C1CCC(c2cccc(NS(=O)(=O)c3cccc(NC(=O)c4ccc(CCCl)cc4)c3)c2)C(=O)N1 (centres unmarked) [AEV41003, 4-(2-chloroethyl)-N-(3-(N-(3-(2,6-dioxopiperidin-3-yl)phenyl)sulfamoyl)phenyl)benzamide]	770	92.1 % of control	79.9 % of control	97.0 % of control	104.0 % of control		
O=C1CCC(c2cccc(NS(=O)(=O)c3cccc(NC(=O)c4ccc(CCCCl)cc4)c3)c2)C(=O)N1 (centres unmarked) [AEV41004, 4-(3-chloropropyl)-N-(3-(N-(3-(2,6-dioxopiperidin-3-yl)phenyl)sulfamoyl)phenyl)benzamide]	1570	10.5 % of control	63.8 % of control	83.5 % of control	101.9 % of control	78.6 % of control	
O=C1CCC(c2cccc(NS(=O)(=O)c3cccc(NC(=O)c4ccc(CCCCCl)cc4)c3)c2)C(=O)N1 (centres unmarked) [AEV41005, 4-(4-chlorobutyl)-N-(3-(N-(3-(2,6-dioxopiperidin-3-yl)phenyl)sulfamoyl)phenyl)benzamide]	1200	10.7 % of control	58.2 % of control	42.2 % of control	36.8 % of control	28.7 % of control	4.1 % of control
Cc1ccc(C(=O)Nc2cccc(S(=O)(=O)Nc3cccc(C4CCC(=O)NC4=O)c3)c2)cc1 (centres unmarked) [AEV41009, N-(3-(N-(3-(2,6-dioxopiperidin-3-yl)phenyl)sulfamoyl)phenyl)-4-methylbenzamide]	540	92.9 % of control	81.3 % of control				
CCc1ccc(C(=O)Nc2cccc(S(=O)(=O)Nc3cccc(C4CCC(=O)NC4=O)c3)c2)cc1 (centres unmarked) [AEV41010, N-(3-(N-(3-(2,6-dioxopiperidin-3-yl)phenyl)sulfamoyl)phenyl)-4-ethylbenzamide]	420	88.4 % of control	66.1 % of control	95.7 % of control	96.7 % of control		
CCCc1ccc(C(=O)Nc2cccc(S(=O)(=O)Nc3cccc(C4CCC(=O)NC4=O)c3)c2)cc1 (centres unmarked) [AEV41011, N-(3-(N-(3-(2,6-dioxopiperidin-3-yl)phenyl)sulfamoyl)phenyl)-4-propylbenzamide]	700	56.9 % of control	66.1 % of control	96.7 % of control	98.9 % of control		
CCCCc1ccc(C(=O)Nc2cccc(S(=O)(=O)Nc3cccc(C4CCC(=O)NC4=O)c3)c2)cc1 (centres unmarked) [AEV41012, 4-butyl-N-(3-(N-(3-(2,6-dioxopiperidin-3-yl)phenyl)sulfamoyl)phenyl)benzamide]	940	7.4 % of control	56.7 % of control	78.7 % of control	94.0 % of control	79.7 % of control	37.7 % of control
CCCCCc1ccc(C(=O)Nc2cccc(S(=O)(=O)Nc3cccc(C4CCC(=O)NC4=O)c3)c2)cc1 (centres unmarked) [AEV41013, N-(3-(N-(3-(2,6-dioxopiperidin-3-yl)phenyl)sulfamoyl)phenyl)-4-pentylbenzamide]	360	15.3 % of control	55.2 % of control	38.5 % of control	25.8 % of control	30.0 % of control	11.8 % of control
O=C1CCC(c2cccc(NS(=O)(=O)c3cccc(NC(=O)c4ccc(CCCCCCl)cc4)c3)c2)C(=O)N1 (centres unmarked) [AEV41047, 4-(5-chloropentyl)-N-(3-(N-(3-(2,6-dioxopiperidin-3-yl)phenyl)sulfamoyl)phenyl)benzamide]	1880	14.9 % of control	56.9 % of control	28.2 % of control	32.2 % of control	20.5 % of control	15.7 % of control
O=C1CCC(c2cccc(NS(=O)(=O)c3cccc(NC(=O)c4ccc(CCCCCCCl)cc4)c3)c2)C(=O)N1 (centres unmarked) [AEV41048, 4-(6-chlorohexyl)-N-(3-(N-(3-(2,6-dioxopiperidin-3-yl)phenyl)sulfamoyl)phenyl)benzamide]	2590	10.8 % of control	51.5 % of control	45.6 % of control	47.0 % of control	54.0 % of control	13.0 % of control
CCCCCCc1ccc(C(=O)Nc2cccc(S(=O)(=O)Nc3cccc(C4CCC(=O)NC4=O)c3)c2)cc1 (centres unmarked) [AEV41083, N-(3-(N-(3-(2,6-dioxopiperidin-3-yl)phenyl)sulfamoyl)phenyl)-4-hexylbenzamide]	910	17.8 % of control	54.7 % of control	35.5 % of control	29.5 % of control	31.4 % of control	9.7 % of control
